Assay results: patent publication US5401739A, “Benzothiadiazine derivatives” (Taiho Pharmaceutical Co. Ltd., priority 1991, dated 1995)
One block for each compound: values may come before it.

How the values were obtained:
[1] = system: hydrochloric acid induced-ulcer; experiment: Effect on hydrochloric acid induced-ulcer (Pharmacological Test 2); type: in vivo, Male Wistar rats; settings: 1 h before 0.6N HCl
Experimental: Effect on hydrochloric acid induced-ulcer:
(§1) Male Wistar rats (weighing 156 to 189 g) were divided into groups, 5 to 8 rats in each group. The animals were fasted for 24 hours, and 5 ml/kg of 0.6N hydrochloric acid was given orally. The animals were sacrificed 1 hour later. The stomach was removed, and 1% formalin was injected into the removed stomach to fix the stomach. The stomach was then incised open along the greater curvature. The length (mm) of gastric lesions was measured, summed and used as an ulcer index. The compound to be tested was dissolved in water, and the solution was orally given to animals at varying doses 1 hour before the injection of hydrochloric acid.

[2] = system: hydrochloric acid induced-ulcer; experiment: Effect on hydrochloric acid induced-ulcer, comparison with Compound A (Pharmacological Test 4); type: in vivo, Male Wistar rats; settings: 30 mg/kg; for Percent inhibition of effect on hydrochloric acid induced-ulcer: Table 8, oral as in Test 2
Experimental: as §1

gastric acid secretion [3] = experiment: Inhibitory activity on gastric acid secretion (pylorus ligation, Pharmacological Test 1); type: in vivo, Male Wistar rats
Experimental: Inhibitory activity on gastric acid secretion:
(§2) Male Wistar rats (weighing 172 to 200 g) were divided into groups, 7 to 8 rats in each group. The animals were fasted for 24 hours. Under ether anesthesia, the abdomen was incised and the pylorus was ligated according to the method of Shay et al. [Gastroenterology, 1, 420 (1963)]. The animals were sacrificed 4 hours later, and the stomach was removed to collect gastric juice, which was then centrifuged (3000 r.p.m., 10 minutes). The volume of gastric juice and the acidity were measured. The compound to be tested was dissolved in water, and the solution was intraduodenally given to animals at varying doses immediately after the ligation of the pylorus.

gastric acid secretion [4] = experiment: Inhibitory activity on gastric acid secretion, comparison with Compound A (Pharmacological Test 3); type: in vivo, Male Wistar rats; settings: 30 mg/kg; for Percent inhibition on gastric acid secretion: Table 7, intraduodenal as in Test 1
Experimental: as §2
Inhibitory activity on gastric acid secretion was measured in the same manner as in Pharmacological Test 1 with use of Compound 2 below as the present compound and, for comparison, Compound A below of Example 37c in JP-A-116277/1984.

[5] = Hygroscopicity (remark in Table 1); type: physicochemical
[6] = Table 3, 10 mg/kg intraduodenal, 4 h, control 2.5 ± 0.5
[7] = Table 3, 10 mg/kg intraduodenal, 4 h, control 65.2 ± 10.7
[8] = Table 3, 10 mg/kg intraduodenal, 4 h, control 162.3 ± 41.6

SMILES: COc1ccc(CN(CCCOc2cccc(CN3CCCCC3)c2)C2=NS(=O)(=O)c3ccccc3N2C)cc1 [Compound 2, 3-[N-[3-[3-(piperidinomethyl)phenoxy]propyl]-4'-methoxybenzylamino]-4-methyl-1,2,4-benzothiadiazine-1,1-dioxide]
Percent inhibition (ulcer index) ([1]; Table 4, 3 mg/kg oral): 33.6%
Ulcer index ([1]; Table 4, 3 mg/kg oral, control 72.7 ± 23.7): 48.3 ± 17.8 mm
Percent inhibition (ulcer index) ([1]; Table 4, 10 mg/kg oral): 55.8%
Ulcer index ([1]; Table 4, 10 mg/kg oral, control 72.7 ± 23.7): 32.1 ± 24.9 mm
Percent inhibition (ulcer index) ([1]; Table 4, 30 mg/kg oral): 85.0%
Ulcer index ([1]; Table 4, 30 mg/kg oral, control 72.7 ± 23.7): 10.9 ± 17.2 mm
Percent inhibition (ulcer index) ([1]; Table 4, 100 mg/kg oral): 94.5%
Ulcer index ([1]; Table 4, 100 mg/kg oral, control 72.7 ± 23.7): 4.0 ± 6.1 mm
Percent inhibition of effect on hydrochloric acid induced-ulcer [2]: 86.9%
effect on hydrochloric acid induced-ulcer, compared with Compound A ([2]; in words, vs Compound A): extremely excellent than Compound A
Acidity (gastric acid secretion [3]; Table 2, 3 mg/kg intraduodenal, 4 h, control 78.4 ± 12.0): 64.8 ± 15.1 μ Eq/ml
Total acid output (gastric acid secretion [3]; Table 2, 3 mg/kg intraduodenal, 4 h, control 391.6 ± 161.6): 247.8 ± 96.9 μ Eq
Volume of gastric juice (gastric acid secretion [3]; Table 2, 3 mg/kg intraduodenal, 4 h after pylorus ligation, control 4.8 ± 1.5): 3.7 ± 0.9 mL
Volume of gastric juice (gastric acid secretion [3]; Table 2, 10 mg/kg intraduodenal, 4 h, control 4.8 ± 1.5): 3.4 ± 1.8 mL
Acidity (gastric acid secretion [3]; Table 2, 10 mg/kg intraduodenal, 4 h, control 78.4 ± 12.0): 54.9 ± 16.1 μ Eq/ml
Total acid output (gastric acid secretion [3]; Table 2, 10 mg/kg intraduodenal, 4 h, control 391.6 ± 161.6): 205.9 ± 165.0 μ Eq
Volume of gastric juice (gastric acid secretion [3]; Table 2, 30 mg/kg intraduodenal, 4 h, control 4.8 ± 1.5): 2.4 ± 1.4 mL
Acidity (gastric acid secretion [3]; Table 2, 30 mg/kg intraduodenal, 4 h, control 78.4 ± 12.0): 30.9 ± 16.7 μ Eq/ml
Total acid output (gastric acid secretion [3]; Table 2, 30 mg/kg intraduodenal, 4 h, control 391.6 ± 161.6): 85.3 ± 92.7 μ Eq
Percent inhibition on gastric acid secretion (gastric acid secretion [4]): 95.1%
inhibitory activity on gastric acid secretion, compared with Compound A (gastric acid secretion [4]; in words, vs Compound A): almost equal to Compound A

SMILES: CCCCN1C(NC/C=C\COc2cccc(CN3CCCCC3)c2)=NS(=O)(=O)c2ccccc21 [Compound 28]
Percent inhibition (ulcer index) ([1]; Table 6, 10 mg/kg oral): 22.6%
Ulcer index ([1]; Table 6, 10 mg/kg oral, control 150.0 ± 35.2): 116.1 ± 34.9 mm
Percent inhibition (ulcer index) ([1]; Table 6, 30 mg/kg oral): 62.8%
Ulcer index ([1]; Table 6, 30 mg/kg oral, control 150.0 ± 35.2): 55.8 ± 32.4 mm
Percent inhibition (ulcer index) ([1]; Table 6, 100 mg/kg oral): 96.6%
Ulcer index ([1]; Table 6, 100 mg/kg oral, control 150.0 ± 35.2): 5.1 ± 4.1 mm
Volume of gastric juice (gastric acid secretion [3]; [6]): 2.2 ± 0.8 mL
Acidity (gastric acid secretion [3]; [7]): 59.2 ± 12.4 μ Eq/ml
Total acid output (gastric acid secretion [3]; [8]): 133.3 ± 69.0 μ Eq
Volume of gastric juice (gastric acid secretion [3]; Table 3, 30 mg/kg intraduodenal, 4 h, control 2.5 ± 0.5): 1.5 ± 0.5 mL
Acidity (gastric acid secretion [3]; Table 3, 30 mg/kg intraduodenal, 4 h, control 65.2 ± 10.7): 32.0 ± 14.4 μ Eq/ml
Total acid output (gastric acid secretion [3]; Table 3, 30 mg/kg intraduodenal, 4 h, control 162.3 ± 41.6): 53.6 ± 32.9 μ Eq
Volume of gastric juice (gastric acid secretion [3]; Table 3, 100 mg/kg intraduodenal, 4 h, control 2.5 ± 0.5): 1.1 ± 0.5 mL
Acidity (gastric acid secretion [3]; Table 3, 100 mg/kg intraduodenal, 4 h, control 65.2 ± 10.7): 4.9 ± 8.2 μ Eq/ml
Total acid output (gastric acid secretion [3]; Table 3, 100 mg/kg intraduodenal, 4 h, control 162.3 ± 41.6): 4.6 ± 7.1 μ Eq

SMILES: CN1C(NCCCOc2cccc(CN3CCCCC3)c2)=NS(=O)(=O)c2ccccc21 [Compound A, reference compound]
Percent inhibition of effect on hydrochloric acid induced-ulcer [2]: 59.4%
Percent inhibition on gastric acid secretion (gastric acid secretion [4]): 96.2%

Hygroscopicity [5]: Hygroscopic
SMILES: COc1ccc2c(c1)N(C)C(NC/C=C\COc1cccc(CN3CCCCC3)c1)=NS2(=O)=O [Compound 29, 3-[N-[4-[3-(piperidinomethyl)phenoxy]-(cis) 2-butenyl]amino]-4-methyl-6-methoxy-1,2,4-benzothiadiazine-1,1-dioxide]

SMILES: CN1C(NC/C=C\COc2cccc(CN3CCCCC3)c2)=NS(=O)(=O)c2ccccc21 [Compound 22, 3-[N-[4-[3-(piperidinomethyl)phenoxy]-(cis) 2-butenyl]amino]-4-methyl-1,2,4-benzothiadiazine-1,1-dioxide]
Percent inhibition (ulcer index) ([1]; Table 5, 10 mg/kg oral): 16.5%
Ulcer index ([1]; Table 5, 10 mg/kg oral, control 61.2 ± 25.4): 51.1 ± 20.4 mm
Percent inhibition (ulcer index) ([1]; Table 5, 30 mg/kg oral): 35.6%
Ulcer index ([1]; Table 5, 30 mg/kg oral, control 61.2 ± 25.4): 39.4 ± 13.2 mm
Percent inhibition (ulcer index) ([1]; Table 5, 100 mg/kg oral): 48.4%
Ulcer index ([1]; Table 5, 100 mg/kg oral, control 61.2 ± 25.4): 31.6 ± 5.0 mm
Volume of gastric juice (gastric acid secretion [3]; Table 3, 3 mg/kg intraduodenal, 4 h, control 2.5 ± 0.5): 2.0 ± 0.6 mL
Acidity (gastric acid secretion [3]; Table 3, 3 mg/kg intraduodenal, 4 h, control 65.2 ± 10.7): 8.6 ± 8.2 μ Eq/ml
Total acid output (gastric acid secretion [3]; Table 3, 3 mg/kg intraduodenal, 4 h, control 162.3 ± 41.6): 15.5 ± 9.6 μ Eq
Volume of gastric juice (gastric acid secretion [3]; [6]): 2.3 ± 1.0 mL
Acidity (gastric acid secretion [3]; [7]): 2.1 ± 3.9 μ Eq/ml
Total acid output (gastric acid secretion [3]; [8]): 4.5 ± 9.4 μ Eq
